The source of these data is patent US11369565B2, “Amino-pyrimidine skeletal muscle modulators” (Cytokinetics, Inc., priority 2010, dated 2022).

This experiment has as its system rabbit skeletal myofibrils (approximately 90% fast fibers). Nature of the experiment: Activation of fast skeletal myofibrils (PUMA coupled-enzyme ATPase assay at pCa25). The class given is biochemical. As to conditions: concentration at which the compound increased the enzymatic activity by 40%; calcium at pCa25; PM12 buffer pH 6.8. The procedure, abridged:
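Detergent-washed rabbit psoas myofibrils tested at calcium giving 25% of maximal rate (pCa25). ATPase activity tracked by pyruvate kinase/lactate dehydrogenase coupling, NADH oxidation read as absorbance at 340 nm, in PM12 buffer (12 mM Pipes, 2 mM MgCl2, 1 mM DTT, pH 6.8).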
On to `CC(C)(CNc1ncc(-c2cc(C(N)=O)ccc2F)cn1)c1ncccc1F` [4-fluoro-3-(2-{[2-(3-fluoro(2-pyridyl))-2-methylpropyl]amino}pyrimidin-5-yl)benzamide], for which the “Mean AC1.4” value is reported as “B (B=1-10 uM)”. For `CC(=O)NCCNC(=O)c1cnc(NCC2(c3ncccc3F)CCC2)nc1` [N-(2-{[2-({[(3-fluoro-2-pyridyl)cyclobutyl]methyl}amino)pyrimidin-5-yl]carbonylamino}ethyl)acetamide], the “Mean AC1.4” value is “D (D=>20 uM)”. In the case of `CC(C)(c1ncccc1S(C)(=O)=O)N(O)c1ncc(-c2cccc(C(N)=O)c2)cn1` [3-[2-({1-methyl-1-[3-(methylsulfonyl)(2-pyridyl)]ethyl}(hydroxyamino))pyrimidin-5-yl]benzamide], the “Mean AC1.4” value is “D (D=>20 uM)”. In the case of `NC(=O)c1cnc(NC2(c3ccc(F)cc3)CCC2)nc1C(F)(F)F` [2-{[(4-fluorophenyl)cyclobutyl]amino}-4-(trifluoromethyl)pyrimidine-5-carboxamide], the “Mean AC1.4” value was “B (B=1-10 uM)”. In the case of `O=C(O)c1cnc(NC2(c3ccc(F)cc3)CCC2)nc1C(F)(F)F` [2-{[(4-fluorophenyl)cyclobutyl]amino}-4-(trifluoromethyl)pyrimidine-5-carboxylic acid], the “Mean AC1.4” value is on record as “D (D=>20 uM)”.

Consider `O=C(Nc1ccccc1F)c1cnc(NCC2(c3ncccc3F)CCC2)nc1` [[2-({[(3-fluoro(2-pyridyl))cyclobutyl]methyl}amino)pyrimidin-5-yl]-N-(2-fluorophenyl)carboxamide], for which the “Mean AC1.4” value is reported as “D (D=>20 uM)”. The same measure for `NC(=O)c1ccc(F)c(-c2cnc(NC3(c4ncccc4F)CCC3)nc2)c1` [4-fluoro-3-(2-{[(3-fluoro(2-pyridyl))cyclobutyl]amino}pyrimidin-5-yl)benzamide]: “A (A=<1 uM)”. Turning to `CC(=O)NCc1cccc(-c2cnc(NC(C)(C)c3ncccc3F)nc2)c1` [N-{[3-(2-{[1-(3-fluoro(2-pyridyl))-isopropyl]amino}pyrimidin-5-yl)phenyl]methyl}acetamide], the “Mean AC1.4” value is listed as “C (C=10-20 uM)”.

For the compound `CC(C)(O)C(=O)NCc1cnc(-c2cnc(NC(C)(C)c3ncccc3Cl)nc2)s1` [N-{[2-(2-{[1-(3-chloro(2-pyridyl))-isopropyl}amino}pyrimidin-5-yl)(1,3-thiazol-5-yl)]methyl]-2-hydroxy-2-methylpropanamide], the “Mean AC1.4” value is “C (C=10-20 uM)”. The same measure for `CC(C)(CNc1ncc(-c2cncc(C(N)=O)c2)cn1)c1ccc(F)cc1` [5-(2-{[2-(4-fluorophenyl)-2-methylpropyl]amino}pyrimidin-5-yl)pyridine-3-carboxamide]: “B (B=1-10 uM)”. The same measure for `CC(=O)NCc1cnc(-c2cnc(NC(C)(C)c3ncccc3Cl)nc2)s1` [N-{[2-(2-{[1-(3-chloro(2-pyridyl))-isopropyl]amino)}pyrimidin-5-yl)-1,3-thiazol-5-yl]methyl]acetamide]: “C (C=10-20 uM)”; for `O=C(Nc1ccccc1)c1cnc(NCC2(c3ncccc3F)CCC2)nc1` [[2-({[(3-fluoro(2-pyridyl))cyclobutyl]methyl}amino)pyrimidin-5-yl]-N-benzamide]: “C (C=10-20 uM)”. The result for `CC(C)(Nc1ncc(-c2c[nH]c(=O)c(C(N)=O)c2)cn1)c1ncccc1Cl` [5-(2-{[1-(3-chloro(2-pyridyl))-isopropyl]amino}pyrimidin-5-yl)-2-oxohydropyridine-3-carboxamide] reads “B (B=1-10 uM)”.

For `C[S+]([O-])c1ccccc1C(C)(C)Nc1ncc(-c2cccc(C(N)=O)c2)cn1` (stereo not shown) [3-(2-(2-(2-(methylsulfinyl)phenyl)propan-2-ylamino)pyrimidin-5-yl)benzamide], the “Mean AC1.4” value is “D (D=>20 uM)”. As to `CC(C)(CNc1ncc2c(n1)CN(C(N)=O)CC2)c1ccc(F)cc1` [2-{[2-(4-fluorophenyl)-2-methylpropyl]amino}-5,6,7,8-tetrahydropyridino[3,4-d]pyrimidine-7-carboxamide], the “Mean AC1.4” value is reported as “D (D=>20 uM)”. As to `N#Cc1cnn(-c2cnc(NC[C@]3(c4ncccc4F)C[C@H](F)C3)nc2)c1` [1-[2-({[3-fluoro-1-(3-fluoro(2-pyridyl))cyclobutyl]methyl}amino)pyrimidin-5-yl]pyrazole-4-carbonitrile], the “Mean AC1.4” value is reported as “C (C=10-20 uM)”. Consider `CC(C)(Nc1ncc(-c2ncc(CNC(=O)CN)s2)cn1)c1ncccc1F` [2-amino-N-{[2-(2-{[1-(3-fluoro(2-pyridyl))-isopropyl]amino}pyrimidin-5-yl)(1,3-thiazol-5-yl)]methyl}acetamide], for which the “Mean AC1.4” value was “D (D=>20 uM)”. The result for `Fc1cccnc1C1(Nc2ncc3cc(Br)ccc3n2)CCC1` [(6-bromoquinazolin-2-yl)[(3-fluoro(2-pyridyl))cyclobutyl]amine] reads “D (D=>20 uM)”; that for `O=C(Nc1cnc(NCC2(c3ncccc3F)CCC2)nc1)Nc1nccs1` [{[2-({[(3-fluoro(2-pyridyl))cyclobutyl]methyl}amino)pyrimidin-5-yl]amino}-N-(1,3-thiazol-2-yl)carboxamide], “B (B=1-10 uM)”; that for `CC(C)(Nc1ncc(-n2cc(CNC(=O)CCN)cn2)cn1)c1ncccc1Cl` [3-amino-N-{[1-(2-{[1-(3-chloro(2-pyridyl))-isopropyl]amino}pyrimidin-5-yl)pyrazol-4-yl]methyl}propanamide], “B (B=1-10 uM)”. As to `CN1CC(NC(=O)c2ccc(F)c(-c3cnc(NC[C@]4(c5ncccc5F)C[C@H](F)C4)nc3)c2)C1` [{4-fluoro-3-[2-({[3-fluoro-1-(3-fluoro(2-pyridyl))cyclobutyl]methyl}amino)pyrimidin-5-yl]phenyl}-N-(1-methylazetidin-3-yl)carboxamide], the “Mean AC1.4” value is given as “B (B=1-10 uM)”. In the case of `N#Cc1n[nH]c2ccc(-c3cnc(NC4(c5ncccc5F)CCC4)nc3)cc12` [5-(2-{[(3-fluoro-2-pyridyl)cyclobutyl]amino}pyrimidin-5-yl)-1H-indazole-3-carbonitrile], the “Mean AC1.4” value is “B (B=1-10 uM)”. The result for `CC(C)(CNc1ncc(-c2ccc3[nH]c(=O)[nH]c3c2)cn1)c1ccc(F)cc1` [5-(2-{[2-(4-fluorophenyl)-2-methylpropyl]amino}pyrimidin-5-yl)-3-hydrobenzimidazol-2-one] reads “B (B=1-10 uM)”; that for `Fc1cccnc1C1(Nc2ncc3ccccc3n2)CCC1` [[(3-fluoro(2-pyridyl))cyclobutyl]quinazolin-2-ylamine], “D (D=>20 uM)”; that for `CC(C)[C@@H](Nc1ncc(-c2ncc(C#N)s2)cn1)c1ncccc1Cl` [2-(2-{[(1R)-1-(3-chloro(2-pyridyl))-2-methylpropyl]amino}pyrimidin-5-yl)-1,3-thiazole-5-carbonitrile], “D (D=>20 uM)”.

As to `Cc1nc(NC[C@]2(c3ncccc3F)C[C@H](F)C2)ncc1-c1ccc(C(N)=O)cc1` [4-[2-({[3-fluoro-1-(3-fluoro(2-pyridyl))cyclobutyl]methyl}amino)-4-methylpyrimidin-5-yl]benzamide], the “Mean AC1.4” value is “D (D=>20 uM)”.

As to `CC(C)(CNc1ncc2c(n1)CCN(S(C)(=O)=O)C2)c1ccc(F)cc1` [2-{[2-(4-fluorophenyl)-2-methylpropyl]amino}-6-(methylsulfonyl)-5,6,7,8-tetrahydropyridino[4,3-d]pyrimidine], the “Mean AC1.4” value is reported as “B (B=1-10 uM)”. The result for `CNC(=O)c1ccc(F)c(-c2cnc(NCC3(c4ncccc4F)CCC3)nc2)c1` [{4-fluoro-3-[2-({[(3-fluoro(2-pyridyl))cyclobutyl]methyl}amino)pyrimidin-5-yl]phenyl}-N-methylcarboxamide] reads “B (B=1-10 uM)”. The same measure for `NC(=O)c1cnc(-c2cnc(NCC3(c4ccccn4)CCC3)nc2)s1` [2-(2-{[(2-pyridylcyclobutyl)methyl]amino}pyrimidin-5-yl)-1,3-thlazole-5-carboxamide]: “B (B=1-10 uM)”; for `CCOC(=O)c1nnc(-c2cnc(NC(C)(C)c3ncccc3Cl)nc2)o1` [ethyl 5-(2-{[1-(3-chloro(2-pyridyl))-isopropyl]amino}pyrimidin-5-yl)-1,3,4-oxadiazole-2-carboxylate]: “D (D=>20 uM)”.

As for `COc1cc(-c2cnc(NC[C@]3(c4ncccc4F)C[C@H](F)C3)nc2)nc(OC)n1` [[5-(2,6-dimethoxypyrimidin-4-yl)pyrimidin-2-yl]{[3-fluoro-1-(3-fluoro(2-pyridyl))cyclobutyl]methyl}amine], the “Mean AC1.4” value is recorded as “D (D=>20 uM)”. Consider `O=C(Nc1cccnc1)c1cnc(NCC2(c3ncccc3F)CCC2)nc1` [[2-({[(3-fluoro(2-pyridyl))cyclobutyl]methyl}amino)pyrimidin-5-yl]-N-(3-pyridyl)carboxamide], for which the “Mean AC1.4” value was “C (C=10-20 uM)”.

For the compound `COc1ncc(-c2cnc(NC(C)(C)c3ncccc3Cl)nc2)cc1C#N` [5-(2-{[1-(3-chloro(2-pyridyl))-isopropyl]amino}pyrimidin-5-yl)-2-methoxypyridine-3-carbonitrile], the “Mean AC1.4” value was “D (D=>20 uM)”. The result for `CC(C)(Nc1ncc(-c2ncc(CN)s2)cn1)c1ncccc1F` [{5-[5-(aminomethyl)(1,3-thiazol-2-yl)]pyrimidin-2-yl}[1-(3-fluoro(2-pyridyl))-isopropyl]amine] reads “D (D=>20 uM)”; that for `CNC(=O)c1ccnc(-c2cnc(NC[C@]3(c4ncccc4F)C[C@H](F)C3)nc2)c1` [{2-[2-({[3-fluoro-1-(3-fluoro(2-pyridyl))cyclobutyl]methyl}amino)pyrimidin-5-yl](4-pyridyl)}-N-methylcarboxamide], “B (B=1-10 uM)”; that for `CC(C)(C)OC(=O)NCc1cnc(-c2cnc(NCC3(c4ncccc4F)CCC3)nc2)s1` [(tert-butoxy)-N-({2-[2-({[(3-fluoro(2-pyridyl))cyclobutyl]methyl}amino)pyrimidin-5-yl](1,3-thiazol-5-yl)}methyl)carboxamide], “B (B=1-10 uM)”. `NC(=O)c1cccc(-c2cnc(NCC3(c4ccccn4)CCC3)nc2)c1` [3-(2-{[(2 pyridylcyclobutyl)methyl]amino}pyrimidin-5-yl)benzamide]: the “Mean AC1.4” value is “B (B=1-10 uM)”.
